Data published in patent US8092790B2, “Methods of making formulations to affect insect behavior and/or bird behavior” (Bug Buster, Ltd., priority 2003, dated 2012).
Where “and” joins values, the source holds several entries; their conditions need not be identical. Identical values can stand only once.

Key:
[1] = test system: ants; test: Treatment of ground to form a boundary; conditions: in vivo
Experimental: An exemplary method includes applying an exemplary compound or composition to the ground to thereby discourage insect traffic or deposition of insect semiochemicals. For example, where an exemplary compound is applied to the ground, the ground is not readily further marked by an insect semiochemical. A trial was performed where an exemplary compound (methyl anthranilate) was applied to the ground to form a boundary.

[2] = test system: house flies; test: Treated aluminum siding section on building; format: in vivo, D. melanogater; conditions: 0.025%, thirty minutes after application
Description: (§1) An exemplary compound, methyl anthranilate (e.g. Bird Shield™) was applied at 0.025% concentration to a three foot by one foot (three square feet) section of aluminum siding (treated section) and compared with a equal sized section of aluminum siding (untreated section) on the side of a building. Approximately 23 to 25 house flies (D. melanogater) had landed and were resting on each section. […] All of the flies on the untreated section remained. […] Twenty-three flies remained on the adjacent untreated section.

[3] = test system: house flies (D. melanogater); test: Treated aluminum siding section on building; format: in vivo; conditions: 0.025%
Description: as §1

[4] = test system: Thaumatomyia glabra (Meigen) flies; conditions: in vivo; cited from earlier work
[5] = test system: birds; conditions: in vivo; cited from earlier work
[6] = test system: sunflower seed weevils (Smicronyx spp.); test: Comparison to DEET product, drawing weevils out of sunflower heads; format: in vivo
Description: DEET is often used by entomologists in standard procedures to draw sunflower seed weevils (Smicronyx spp.) out of the heads of sunflowers. In this trial, DEET was provided in the commercially available product DEEP WOODS OFF™ repellent (S.C. Johnson and Son's, Racine, Wis.), which has approximately 28.5% active ingredient; 1.5% other isomers and 70% inert ingredients. Forty-two flowers were randomly selected from interiors of three fields. One-half of the flowers were sprayed with the DEET containing repellent while the remaining flowers were sprayed with the exemplary compound at a concentration of approximately 0.00312% methyl anthranilate, which was combined with long chained fatty acids. The number of sunflower weevils was recorded.

[7] = test system: striped sunflower head moth larvae; test: Exemplary compound applied after exemplary composition, sunflowers; conditions: in vivo
Description: An exemplary compound, methyl anthranilate, was combined with long chain fatty acids. The exemplary compound, as mixed with the fatty acids, was applied to three fields of maturing sunflowers. Each of the fields had previously been treated with an exemplary composition that included an exemplary compound, methyl anthranilate (approx. 4.5 oz per acre mixed with long chain fatty acids) and an insecticide, in this example, esfenvalerate (approx. 8 oz per acre using the insecticide product ASANA™). Ten flowers were randomly selected from the interior of each field and one-half of the seed heads were sprayed with DEET and one-half sprayed with the exemplary compound at a concentration of approximately 0.00312% methyl anthranilate, which was in a mixture that included long chain fatty acids. Spraying sprayed across the head of each flower. The number of striped sunflower head moth larvae, emerging from the seeds, was recorded.

[8] = test system: birds; test: Container placed in aircraft hanger; format: in vivo; conditions: 2.5 gallon HDPE container at least partially filled
[9] = test system: Thrips hawaiiensis; conditions: in vivo; cited from earlier work
[10] = test system: mosquito (Aedes aegyptis); test: Mosquito repellency on human subject; format: in vivo
Description: In these trials, DEET was provided in the commercially available product DEEP WOODS OFF™ repellent (S.C. Johnson & Son, Inc., Racine, Wis.), which has approximately 28.5% active ingredient; 1.5% other isomers and 70% inert ingredients.
In a first trial, a human subject was exposed to a mosquito (Aedes aegyptis) rich environment without application of the exemplary compound or DEET. Within less than one minute the subject was covered with the insects. In a second trial, the subject sprayed one unclothed arm with the exemplary compound at a rate of 0.00312% and the other unclothed arm with DEET at a concentration of 0.24%. The subject's head remained untreated. Upon returning to the test area, the subject's head was covered with the insects within one minute. […] In a third trial the subject, after removing the DEET from his/her body, reapplied the exemplary compound to unclothed arms, head and neck before returning to the test area. The subject returned to and remained in the test area for more than one hour without any of the insects landing on his/her arms, hands and head while numerous insects were observed on the clothed portions of his/her anatomy.

[11] = test system: house flies (Drosophila melanogater); test: Three-section Petri dish choice test; format: in vivo
Description: Colonies of house flies (Drosophila melanogater) were selected for subsequent placement in covered Petri dishes wherein each Petri dish was divided into three sections. One of the sections, a center section, was used as a control. An exemplary compound, methyl anthranilate (e.g., BIRDSHIELD™ at 0.006%) was applied to a piece of filter paper and placed in a first section while an […] (e.g., deionized water), was applied to another piece of filter paper and placed in second section. Flies were then released into the center control section and lids were placed on the Petri dishes.
More specifically, 100 captive flies were used and the sections were approximately equal in size, e.g., 33% of total space per section. Flies were released into the neutral zone of each Petri dish and monitored after 15 minutes and one hour.

[12] = test system: T. coloratus; conditions: in vivo; cited from earlier work
[13] = test system: adult weevils; test: Exemplary compound on sunflowers previously sprayed with esfenvalerate, weevils emerging; format: in vivo
Description: An exemplary compound, methyl anthranilate, was combined with long chain fatty acids. An exemplary method applied the mixture to fifteen maturing sunflowers in the interior of two fields that were previously sprayed with an insecticide, esfenvalerate (e.g., the insecticide product ASANA™). The mixture that included the exemplary compound was applied by spraying the mixture across the head of each flower (e.g., where seeds exist). The number of striped sunflower head moth larvae and weevils, emerging from the seeds, was recorded.

COC(=O)c1ccccc1N [methyl anthranilate]
crossing of treated ground boundary [1]: ants did not cross this boundary | flies attempting to land on treated section within a five minute period [2]: approximately 30 flies | flies resting on treated section ([3]; immediately after application): all of the flies departed | flies on treated section ([3]; one hour after application): no flies were observed trying to land on the treated section | time flies remained on treated section ([3]; thirty minutes after application): 6 to 8 s | flies on treated section ([3]; twenty-four hours after application): no flies were observed on the treated section | attraction of Thaumatomyia glabra flies [4]: attractive | repellency to birds [5]: exhibit repellency to birds | Number of insects, Mean ([6]; Field No. 1): 6.8 | Number of insects, Total ([6]; Field No. 1): 68 | Number of insects, Mean ([6]; Field No. 2): 24 | Number of insects, Total ([6]; Field No. 2): 72 | Number of insects ([6]; Field No. 2, per flower, DEET as DEEP WOODS OFF, methyl anthranilate approx. 0.00312% with long chained fatty acids): 23 and 24 and 26 | Number of insects, Mean ([6]; Field No. 3): 8.4 | Number of insects, Total ([6]; Field No. 3): 67 | effectiveness compared with DEET ([6]; approx. 0.00312% methyl anthranilate with long chained fatty acids vs DEET repellent product): generally more effective than DEET | effectiveness when applied after an exemplary composition [7]: high level of effectiveness | bird population in hanger [8]: bird population dwindled | surface guano on aircraft [8]: significant drop in surface guano | attraction of Thrips hawaiiensis [9]: are attracted | effectiveness as mosquito repellent compared with DEET ([10]; at lower concentrations): as effective as DEET | mosquitoes on treated unclothed arm ([10]; second trial, methyl anthranilate 0.00312%, DEET 0.24%, untreated head covered within one minute): No mosquitoes were found | time in test area without insects landing on treated arms, hands and head ([10]; third trial): more than one | fly response to treated section ([11]; 0.006% on filter paper, within one hour): avoided the section treated with the exemplary compound | fly response to treated areas ([11]; approximately 0.00025%): relatively neutral | fly response to treated areas ([11]; approximately 0.0025%): somewhat neutral | fly response to treated areas ([11]; approximately 0.025%): avoided the treated areas | fly response to treated areas ([11]; approximately 0.25%, 100 flies, monitored after 15 minutes and one hour): avoided the treated areas | attraction of T. coloratus [12]: are attracted | Number of Adult Weevils, Mean ([13]; Field No 2): 1.14 | Number of Adult Weevils, Total ([13]; Field No 2): 8 | Number of Adult Weevils, Mean ([13]; Field No. 1): 0.43 | Number of Adult Weevils, Total ([13]; Field No. 1): 3
